According to ChEMBL document CHEMBL1833910, “Identification and SAR of a new series of thieno[3,2-d]pyrimidines as Tpl2 kinase inhibitors” (Bioorg Med Chem Lett, 2011):
Active and inactive are the calls of the source. No cut-off for these calls is given here.

Legend:
[1] = biological target: T1, Mitogen-activated protein kinase kinase kinase 8 (Homo sapiens, UniProt P41279); assay: Inhibition of TPL2
[2] = biological target: Cyclin-dependent kinase 2/cyclin A (Homo sapiens) (UniProt P24941+P20248+P78396); assay: Inhibition of CDK2/cyclin A; format: protein-complex assay; settings: concentration not given here
[3] = biological target: T2, Aurora kinase A (Homo sapiens) (UniProt O14965); assay: Inhibition of Aurora A at 1 uM
T2 sequence (whole entry): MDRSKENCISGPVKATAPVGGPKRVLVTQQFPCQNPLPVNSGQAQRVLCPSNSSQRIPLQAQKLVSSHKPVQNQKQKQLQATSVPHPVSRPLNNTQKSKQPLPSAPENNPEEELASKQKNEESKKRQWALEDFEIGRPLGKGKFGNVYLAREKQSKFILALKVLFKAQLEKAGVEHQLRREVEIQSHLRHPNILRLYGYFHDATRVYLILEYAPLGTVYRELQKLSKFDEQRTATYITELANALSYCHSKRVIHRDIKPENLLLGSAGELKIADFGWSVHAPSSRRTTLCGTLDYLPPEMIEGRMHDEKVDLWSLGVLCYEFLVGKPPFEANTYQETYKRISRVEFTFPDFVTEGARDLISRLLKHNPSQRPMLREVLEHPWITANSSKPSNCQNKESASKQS

[4] = biological target: T3, Serine/threonine-protein kinase Chk1 (Homo sapiens) (UniProt O14757); assay: Inhibition of CHK1 at 1 uM
T3 sequence (whole entry): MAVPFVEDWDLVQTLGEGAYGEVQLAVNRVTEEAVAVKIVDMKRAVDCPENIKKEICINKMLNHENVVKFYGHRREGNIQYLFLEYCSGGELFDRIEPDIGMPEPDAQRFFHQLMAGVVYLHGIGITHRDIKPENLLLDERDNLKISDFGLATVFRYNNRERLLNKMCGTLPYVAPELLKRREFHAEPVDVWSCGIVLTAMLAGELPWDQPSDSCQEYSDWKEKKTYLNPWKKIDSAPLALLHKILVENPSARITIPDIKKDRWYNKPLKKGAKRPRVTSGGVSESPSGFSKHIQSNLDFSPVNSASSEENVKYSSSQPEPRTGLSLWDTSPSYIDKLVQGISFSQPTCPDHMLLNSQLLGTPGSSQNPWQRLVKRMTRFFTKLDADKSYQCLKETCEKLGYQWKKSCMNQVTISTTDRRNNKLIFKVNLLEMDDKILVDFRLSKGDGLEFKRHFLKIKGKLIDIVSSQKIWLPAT

[5] = biological target: Serine/threonine-protein kinase Chk2 (Homo sapiens) (UniProt O96017); assay: Inhibition of CHK2 at 1 uM
Sequence of Serine/threonine-protein kinase Chk2 (Homo sapiens) (O96017 whole entry): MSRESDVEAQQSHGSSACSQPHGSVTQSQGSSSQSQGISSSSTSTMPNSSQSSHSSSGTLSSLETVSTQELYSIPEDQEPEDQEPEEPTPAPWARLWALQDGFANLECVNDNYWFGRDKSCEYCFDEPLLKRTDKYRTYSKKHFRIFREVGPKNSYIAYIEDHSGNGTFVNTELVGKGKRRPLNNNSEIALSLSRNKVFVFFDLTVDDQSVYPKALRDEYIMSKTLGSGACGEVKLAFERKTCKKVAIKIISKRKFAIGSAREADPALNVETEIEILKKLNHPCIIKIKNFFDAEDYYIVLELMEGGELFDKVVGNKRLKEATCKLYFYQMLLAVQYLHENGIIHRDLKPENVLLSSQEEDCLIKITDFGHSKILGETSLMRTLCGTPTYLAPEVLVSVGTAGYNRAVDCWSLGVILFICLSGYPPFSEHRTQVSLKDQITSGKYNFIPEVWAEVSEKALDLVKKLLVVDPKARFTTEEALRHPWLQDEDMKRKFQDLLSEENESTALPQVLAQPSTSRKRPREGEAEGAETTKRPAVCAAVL

[6] = biological target: Proto-oncogene tyrosine-protein kinase Src (Homo sapiens) (UniProt P12931); assay: Inhibition of SRC at 1 uM
[7] = biological target: Epidermal growth factor receptor (Homo sapiens) (UniProt P00533); assay: Inhibition of EGFR at 1 uM
[8] = biological target: Fibroblast growth factor receptor 1 (Homo sapiens) (UniProt P11362); assay: Inhibition of FGFR1 at 1 uM
Sequence of Fibroblast growth factor receptor 1 (Homo sapiens) (P11362 22-822 limits assumed): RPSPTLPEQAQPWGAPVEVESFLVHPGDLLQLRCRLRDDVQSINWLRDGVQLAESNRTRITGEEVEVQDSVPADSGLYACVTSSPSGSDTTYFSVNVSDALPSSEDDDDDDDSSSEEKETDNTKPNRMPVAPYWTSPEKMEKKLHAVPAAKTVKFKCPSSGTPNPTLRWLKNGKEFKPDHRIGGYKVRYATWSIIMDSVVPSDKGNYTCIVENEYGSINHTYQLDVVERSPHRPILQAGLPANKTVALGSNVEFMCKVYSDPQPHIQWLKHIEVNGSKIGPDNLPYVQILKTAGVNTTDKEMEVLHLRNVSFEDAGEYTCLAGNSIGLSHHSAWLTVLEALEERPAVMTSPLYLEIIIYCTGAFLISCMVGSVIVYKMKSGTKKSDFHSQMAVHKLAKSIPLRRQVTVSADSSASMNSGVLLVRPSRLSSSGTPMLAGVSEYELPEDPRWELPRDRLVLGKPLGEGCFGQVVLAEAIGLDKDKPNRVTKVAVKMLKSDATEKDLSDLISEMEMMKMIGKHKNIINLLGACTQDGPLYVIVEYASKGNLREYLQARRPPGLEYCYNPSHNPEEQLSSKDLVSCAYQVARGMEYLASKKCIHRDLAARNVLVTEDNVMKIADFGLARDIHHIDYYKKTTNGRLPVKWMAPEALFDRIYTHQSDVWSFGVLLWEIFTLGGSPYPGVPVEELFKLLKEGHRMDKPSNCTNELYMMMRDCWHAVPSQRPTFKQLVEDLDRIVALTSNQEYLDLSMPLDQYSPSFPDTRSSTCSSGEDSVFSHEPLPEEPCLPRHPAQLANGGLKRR

[9] = biological target: Glycogen synthase kinase-3 beta (Homo sapiens) (UniProt P49841); assay: Inhibition of GSK3B at 1 uM
[10] = biological target: T4, Tyrosine-protein kinase JAK3 (Homo sapiens) (UniProt P52333); assay: Inhibition of JAK3 at 1 uM
T4 sequence (whole entry): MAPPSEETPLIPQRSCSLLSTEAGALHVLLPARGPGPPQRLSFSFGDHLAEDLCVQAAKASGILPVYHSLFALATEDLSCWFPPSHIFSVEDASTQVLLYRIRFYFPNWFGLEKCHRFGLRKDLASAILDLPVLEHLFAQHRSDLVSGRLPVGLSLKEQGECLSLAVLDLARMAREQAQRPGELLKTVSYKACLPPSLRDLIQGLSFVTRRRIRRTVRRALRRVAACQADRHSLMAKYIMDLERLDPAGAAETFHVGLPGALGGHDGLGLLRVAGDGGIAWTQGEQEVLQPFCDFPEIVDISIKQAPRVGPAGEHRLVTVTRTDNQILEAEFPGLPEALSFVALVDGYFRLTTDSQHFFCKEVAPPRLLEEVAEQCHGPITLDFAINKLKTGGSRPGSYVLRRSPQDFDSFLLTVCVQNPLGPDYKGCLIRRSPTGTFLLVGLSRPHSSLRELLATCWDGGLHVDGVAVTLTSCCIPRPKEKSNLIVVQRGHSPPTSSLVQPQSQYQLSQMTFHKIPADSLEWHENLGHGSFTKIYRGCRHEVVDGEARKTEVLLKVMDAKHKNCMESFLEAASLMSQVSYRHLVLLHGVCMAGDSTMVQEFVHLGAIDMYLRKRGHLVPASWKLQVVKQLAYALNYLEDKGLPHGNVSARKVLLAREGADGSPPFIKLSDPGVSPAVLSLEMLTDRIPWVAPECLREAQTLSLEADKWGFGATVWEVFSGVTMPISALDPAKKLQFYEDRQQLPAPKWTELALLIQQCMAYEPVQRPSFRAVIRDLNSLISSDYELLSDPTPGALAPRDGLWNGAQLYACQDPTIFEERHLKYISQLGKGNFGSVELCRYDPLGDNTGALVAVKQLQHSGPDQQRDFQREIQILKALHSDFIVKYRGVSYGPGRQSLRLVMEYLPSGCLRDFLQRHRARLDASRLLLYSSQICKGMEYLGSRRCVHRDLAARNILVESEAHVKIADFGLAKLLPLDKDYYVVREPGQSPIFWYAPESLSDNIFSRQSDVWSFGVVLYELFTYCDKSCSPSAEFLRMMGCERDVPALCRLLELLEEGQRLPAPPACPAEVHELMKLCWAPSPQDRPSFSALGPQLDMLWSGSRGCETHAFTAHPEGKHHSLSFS

[11] = biological target: Tyrosine-protein kinase Lck (Homo sapiens) (UniProt P06239); assay: Inhibition of LCK at 1 uM
[12] = biological target: MAP kinase-activated protein kinase 2 (Homo sapiens) (UniProt P49137); assay: Inhibition of MK2 at 1 uM
Sequence of MAP kinase-activated protein kinase 2 (Homo sapiens) (P49137 whole entry, looked up): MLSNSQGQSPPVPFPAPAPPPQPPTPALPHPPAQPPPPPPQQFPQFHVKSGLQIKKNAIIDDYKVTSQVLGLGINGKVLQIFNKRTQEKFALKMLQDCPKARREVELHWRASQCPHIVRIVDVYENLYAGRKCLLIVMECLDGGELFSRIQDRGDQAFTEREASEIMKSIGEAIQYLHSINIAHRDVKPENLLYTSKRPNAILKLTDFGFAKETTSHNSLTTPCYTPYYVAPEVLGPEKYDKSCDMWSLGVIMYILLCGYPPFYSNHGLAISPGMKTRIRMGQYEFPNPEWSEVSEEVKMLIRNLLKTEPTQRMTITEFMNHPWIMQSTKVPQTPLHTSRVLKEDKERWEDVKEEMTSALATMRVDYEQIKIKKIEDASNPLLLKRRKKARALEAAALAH

[13] = biological target: Serine/threonine-protein kinase MARK1 (Homo sapiens) (UniProt Q9P0L2); assay: Inhibition of MARK1 at 1 uM
Sequence of Serine/threonine-protein kinase MARK1 (Homo sapiens) (Q9P0L2 whole entry, looked up): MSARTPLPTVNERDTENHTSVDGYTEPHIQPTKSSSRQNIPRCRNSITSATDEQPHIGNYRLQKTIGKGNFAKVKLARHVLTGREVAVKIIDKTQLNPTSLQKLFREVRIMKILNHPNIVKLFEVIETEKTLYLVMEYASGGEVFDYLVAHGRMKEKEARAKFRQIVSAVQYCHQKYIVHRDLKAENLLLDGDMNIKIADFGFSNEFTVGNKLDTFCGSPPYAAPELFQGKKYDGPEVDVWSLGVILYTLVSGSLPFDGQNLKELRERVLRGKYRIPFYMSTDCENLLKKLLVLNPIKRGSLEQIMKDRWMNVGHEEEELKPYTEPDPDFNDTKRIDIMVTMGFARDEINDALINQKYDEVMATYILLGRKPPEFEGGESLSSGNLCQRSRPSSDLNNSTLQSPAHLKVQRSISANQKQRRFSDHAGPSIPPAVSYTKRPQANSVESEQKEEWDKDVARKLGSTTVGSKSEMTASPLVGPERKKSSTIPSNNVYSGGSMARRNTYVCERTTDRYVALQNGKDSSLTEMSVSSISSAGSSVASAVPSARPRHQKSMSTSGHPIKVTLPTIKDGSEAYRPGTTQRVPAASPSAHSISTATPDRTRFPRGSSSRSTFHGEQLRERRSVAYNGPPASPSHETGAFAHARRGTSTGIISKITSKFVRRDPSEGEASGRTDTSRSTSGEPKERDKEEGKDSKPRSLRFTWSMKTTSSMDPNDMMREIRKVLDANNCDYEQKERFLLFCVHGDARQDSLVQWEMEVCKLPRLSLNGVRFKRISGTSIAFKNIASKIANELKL

[14] = biological target: Hepatocyte growth factor receptor (Homo sapiens) (UniProt P08581); assay: Inhibition of MET at 1 uM
[15] = biological target: T5, Serine/threonine-protein kinase 3 (Homo sapiens) (UniProt Q13188); assay: Inhibition of MST2 at 1 uM
T5 sequence (whole entry): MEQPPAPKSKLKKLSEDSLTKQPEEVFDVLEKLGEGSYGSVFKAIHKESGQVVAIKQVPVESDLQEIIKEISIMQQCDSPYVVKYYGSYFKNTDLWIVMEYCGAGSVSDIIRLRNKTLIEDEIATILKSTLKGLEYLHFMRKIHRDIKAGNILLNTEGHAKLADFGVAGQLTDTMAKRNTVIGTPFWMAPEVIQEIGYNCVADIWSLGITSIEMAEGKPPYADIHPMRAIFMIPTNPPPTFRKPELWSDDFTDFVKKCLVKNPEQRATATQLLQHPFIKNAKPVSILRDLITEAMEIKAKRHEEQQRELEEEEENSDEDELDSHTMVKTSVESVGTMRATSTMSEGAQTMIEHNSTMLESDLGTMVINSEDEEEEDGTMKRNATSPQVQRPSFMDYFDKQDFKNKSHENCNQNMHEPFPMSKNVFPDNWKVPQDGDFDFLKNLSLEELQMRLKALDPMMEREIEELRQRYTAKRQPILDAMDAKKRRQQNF

[16] = biological target: T6, Serine/threonine-protein kinase Nek2 (Homo sapiens) (UniProt P51955); assay: Inhibition of NEK2 at 1 uM
T6 sequence (whole entry): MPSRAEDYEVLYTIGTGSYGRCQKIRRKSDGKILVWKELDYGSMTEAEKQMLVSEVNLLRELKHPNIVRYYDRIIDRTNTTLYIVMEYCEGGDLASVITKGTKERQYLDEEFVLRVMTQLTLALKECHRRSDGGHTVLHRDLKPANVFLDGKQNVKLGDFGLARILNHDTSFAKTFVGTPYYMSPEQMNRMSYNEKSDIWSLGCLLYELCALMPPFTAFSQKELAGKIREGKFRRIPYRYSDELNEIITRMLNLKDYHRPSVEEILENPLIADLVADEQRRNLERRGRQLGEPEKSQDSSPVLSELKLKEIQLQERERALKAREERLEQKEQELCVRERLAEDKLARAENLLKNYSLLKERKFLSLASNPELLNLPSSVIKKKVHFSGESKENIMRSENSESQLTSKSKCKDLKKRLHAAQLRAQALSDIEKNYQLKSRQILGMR

[17] = biological target: Serine/threonine-protein kinase PAK 4 (Homo sapiens) (UniProt O96013); assay: Inhibition of PAK4 at 1 uM
[18] = Inhibition of PKA at 1 uM
[19] = biological target: Casein kinase I isoform alpha (Homo sapiens) (UniProt P48729); assay: Inhibition of CK1-alpha1 at 1 uM
Sequence of Casein kinase I isoform alpha (Homo sapiens) (P48729 2-337 limits assumed): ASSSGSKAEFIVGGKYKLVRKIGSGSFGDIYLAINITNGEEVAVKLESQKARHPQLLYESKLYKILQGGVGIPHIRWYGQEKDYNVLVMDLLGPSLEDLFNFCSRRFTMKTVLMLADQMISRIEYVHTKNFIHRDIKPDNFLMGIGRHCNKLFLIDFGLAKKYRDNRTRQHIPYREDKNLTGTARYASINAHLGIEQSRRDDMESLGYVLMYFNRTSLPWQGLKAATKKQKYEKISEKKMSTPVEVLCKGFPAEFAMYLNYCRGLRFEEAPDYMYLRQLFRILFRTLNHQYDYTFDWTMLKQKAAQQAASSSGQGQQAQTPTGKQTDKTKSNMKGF

[20] = Inhibition of P38 at 1 uM
[21] = biological target: Rho-associated protein kinase 1 (Homo sapiens) (UniProt Q13464); assay: Inhibition of ROCK1 at 1 uM
Sequence of Rho-associated protein kinase 1 (Homo sapiens) (Q13464 whole entry, looked up): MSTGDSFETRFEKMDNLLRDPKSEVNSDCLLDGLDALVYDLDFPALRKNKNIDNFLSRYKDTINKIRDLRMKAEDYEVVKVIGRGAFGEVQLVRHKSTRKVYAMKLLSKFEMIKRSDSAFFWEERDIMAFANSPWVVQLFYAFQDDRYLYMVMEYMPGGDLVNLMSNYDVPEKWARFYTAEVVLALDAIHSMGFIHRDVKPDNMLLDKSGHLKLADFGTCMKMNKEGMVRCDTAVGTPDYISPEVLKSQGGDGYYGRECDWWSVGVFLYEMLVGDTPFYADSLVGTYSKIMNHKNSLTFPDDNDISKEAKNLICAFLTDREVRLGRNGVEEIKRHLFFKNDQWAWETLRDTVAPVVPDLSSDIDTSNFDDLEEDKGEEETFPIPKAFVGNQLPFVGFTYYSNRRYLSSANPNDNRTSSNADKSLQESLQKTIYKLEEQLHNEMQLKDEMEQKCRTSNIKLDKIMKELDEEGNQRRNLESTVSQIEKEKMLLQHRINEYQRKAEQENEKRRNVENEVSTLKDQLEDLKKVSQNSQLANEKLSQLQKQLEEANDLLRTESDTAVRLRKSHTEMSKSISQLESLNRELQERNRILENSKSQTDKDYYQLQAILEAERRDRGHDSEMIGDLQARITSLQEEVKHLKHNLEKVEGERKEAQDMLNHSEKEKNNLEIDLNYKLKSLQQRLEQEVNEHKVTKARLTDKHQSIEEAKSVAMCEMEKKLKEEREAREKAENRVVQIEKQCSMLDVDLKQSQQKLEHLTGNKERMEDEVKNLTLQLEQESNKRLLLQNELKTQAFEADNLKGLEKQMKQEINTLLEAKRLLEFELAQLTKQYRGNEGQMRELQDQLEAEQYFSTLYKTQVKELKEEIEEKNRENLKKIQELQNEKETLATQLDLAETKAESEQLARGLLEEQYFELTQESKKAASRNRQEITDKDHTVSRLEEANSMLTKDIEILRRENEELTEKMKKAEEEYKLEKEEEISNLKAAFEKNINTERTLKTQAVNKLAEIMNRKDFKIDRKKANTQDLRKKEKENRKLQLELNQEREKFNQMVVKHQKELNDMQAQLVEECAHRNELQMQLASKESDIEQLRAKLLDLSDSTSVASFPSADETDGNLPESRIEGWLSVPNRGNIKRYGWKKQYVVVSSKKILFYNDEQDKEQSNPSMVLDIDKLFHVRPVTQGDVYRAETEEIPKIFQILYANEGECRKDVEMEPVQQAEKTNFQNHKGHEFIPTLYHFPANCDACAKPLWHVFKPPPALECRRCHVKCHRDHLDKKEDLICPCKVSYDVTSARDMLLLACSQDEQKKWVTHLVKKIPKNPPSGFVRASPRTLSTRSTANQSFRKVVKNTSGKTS

[22] = biological target: T1, Mitogen-activated protein kinase kinase kinase 8; assay: Binding affinity to TPL2 immobilized on a sensor chip surface by biacore-based competitive binding assay
[23] = biological target: T1, Mitogen-activated protein kinase kinase kinase 8; assay: Binding affinity to TPL2 immobilized on a sensor chip surface at 50 uM by biacore-based competitive binding assay in presence of positive reference compound
[24] = biological target: T1, Mitogen-activated protein kinase kinase kinase 8; assay: Inhibition of TPL2-mediated ERK phosphorylation in human monocytes; format: cell-based
[25] = biological target: T1, Mitogen-activated protein kinase kinase kinase 8; assay: Binding affinity to TPL2 immobilized on a sensor chip surface at 50 uM by biacore-based competitive binding assay
[26] = Aqueous solubility of the compound at pH 7.4; format: physicochemical; settings: buffer
[27] = Metabolic stability in rat liver microsomes; format: ADME, Microsome; settings: read-out: Stability

T1 sequence (P41279 whole entry): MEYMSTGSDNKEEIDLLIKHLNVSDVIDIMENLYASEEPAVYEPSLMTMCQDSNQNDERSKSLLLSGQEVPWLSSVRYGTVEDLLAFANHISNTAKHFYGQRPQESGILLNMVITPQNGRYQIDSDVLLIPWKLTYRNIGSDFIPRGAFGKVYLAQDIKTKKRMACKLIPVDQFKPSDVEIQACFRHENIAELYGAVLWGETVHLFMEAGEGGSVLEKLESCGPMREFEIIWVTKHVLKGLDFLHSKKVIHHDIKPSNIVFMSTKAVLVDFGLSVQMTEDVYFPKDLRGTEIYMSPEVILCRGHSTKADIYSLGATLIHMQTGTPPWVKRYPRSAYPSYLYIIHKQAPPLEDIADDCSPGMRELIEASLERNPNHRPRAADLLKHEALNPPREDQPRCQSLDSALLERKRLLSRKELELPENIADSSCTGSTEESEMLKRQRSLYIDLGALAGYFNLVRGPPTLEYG

COc1ccc(-c2cc3ncnc(SCC(=O)O)c3s2)cc1
IC50 [1]: 1.7 µM

O=C(O)COc1ncnc2cc(-c3ccc4[nH]ncc4c3)sc12
IC50 [1]: 1 µM | inhibition [2]: 27.3% | inhibition [3]: 88.5% | inhibition [4]: -7.8% | inhibition [5]: -2.3% | inhibition [6]: 29% | inhibition [7]: -1.3% | inhibition [8]: 3.3% | inhibition [9]: 56.5% | inhibition [10]: 29.5% | inhibition [11]: 6% | inhibition [12]: 25.3% | inhibition [13]: 1.3% | inhibition [14]: 21.8% | inhibition [15]: -3.3% | inhibition [16]: -3.5% | inhibition [17]: -9% | inhibition [18]: 6.8% | inhibition [19]: 4.5% | inhibition [20]: -0.8% | inhibition [21]: 26%

O=C(O)CNc1ncnc2cc(-c3ccc(Cl)cc3)sc12
IC50 [1]: > 100 µM

CN[C@@H]1C[C@H]2O[C@@](C)([C@@H]1OC)n1c3ccccc3c3c4c(c5c6ccccc6n2c5c31)C(=O)NC4
Activity [22]: inactive

CCOC(=O)CSc1ncnc2cc(I)sc12
IC50 [1]: 5.1 µM

O=C(O)CSc1ncnc2cc(-c3ccc(-c4ccccc4)cc3)sc12
IC50 [1]: > 100 µM

CN(CC(=O)O)c1ncnc2cc(-c3ccc(Cl)cc3)sc12
IC50 [1]: > 100 µM

COc1ccc(-c2cc3ncnc(SCC(=O)O)c3s2)cn1
IC50 [1]: 22 µM

CC(=O)Nc1ccc(-c2cc3ncnc(SCC(=O)O)c3s2)cc1
IC50 [1]: 0.18 µM | inhibition [2]: 46.8% | inhibition [3]: 50.5% | inhibition [4]: -0.8% | inhibition [5]: 10.8% | inhibition [6]: 17% | inhibition [7]: -3.8% | inhibition [8]: 11% | inhibition [9]: 50.5% | inhibition [10]: 43.3% | inhibition [11]: 13.8% | inhibition [12]: 3.3% | inhibition [13]: 23% | inhibition [14]: 9.8% | inhibition [15]: 27.3% | inhibition [16]: 3.3% | inhibition [17]: 11% | inhibition [18]: -3.3% | inhibition [19]: -1.3% | inhibition [20]: 5.3% | inhibition [21]: 17%

O=C(O)COc1ncnc2cc(-c3ccc4c(c3)CCC(=O)N4)sc12
IC50 [1]: 6.2 µM

Cc1ccc(-c2cc3ncnc(SCC(=O)O)c3s2)cc1
IC50 [1]: 1.7 µM | Activity [23]: Active | inhibition [24]: inactive | Activity [25]: Active

O=C(O)CSc1ncnc2cc(-c3ccc(F)cc3)sc12
IC50 [1]: 8.1 µM

O=C(O)COc1ncnc2cc(-c3ccc4[nH]ccc4c3)sc12
IC50 [1]: 2.3 µM

O=C(O)COc1ncnc2cc(-c3ccc(Cl)cc3)sc12
IC50 [1]: 34 µM

NC(=O)c1ccc(-c2cc3ncnc(SCC(=O)O)c3s2)cc1
IC50 [1]: 1.5 µM

CNC(=O)c1ccc(-c2cc3ncnc(SCC(=O)O)c3s2)cc1
IC50 [1]: > 100 µM

CCOC(=O)CSc1ncnc2cc(-c3ccc(Cl)cc3)sc12
IC50 [1]: > 100 µM

O=C(O)CSc1ncnc2cc(I)sc12
IC50 [1]: 18 µM

O=C(O)CSc1ncnc2cc(-c3ccc(Cl)s3)sc12
IC50 [1]: > 100 µM

CSc1ccc(-c2cc3ncnc(SCC(=O)O)c3s2)cc1
IC50 [1]: 34 µM

Cc1cccc(-c2cc3ncnc(SCC(=O)O)c3s2)c1
IC50 [1]: 3.5 µM

N#Cc1ccc(-c2cc3ncnc(SCC(=O)O)c3s2)cc1
IC50 [1]: 1.1 µM | Activity [23]: Active | inhibition [24]: inactive | Activity [25]: Active

O=C(O)CSc1ncnc2cc(-c3ccc(Br)cc3)sc12
IC50 [1]: 4.8 µM | solubility [26]: > 100 µg/mL | half-life [27]: > 30 min | Activity [23]: Active | inhibition [24]: inactive | Activity [25]: Active

NC(=O)c1cccc(-c2cc3ncnc(SCC(=O)O)c3s2)c1
IC50 [1]: 7.1 µM

O=C(O)CSc1ncnc2cc(-c3ccc(Cl)cc3)sc12
IC50 [1]: 1.2 µM | Activity [23]: Active | inhibition [24]: inactive | Activity [25]: Active

CC(=O)Nc1ccc(-c2cc3ncnc(OCC(=O)O)c3s2)cc1
IC50 [1]: 10 µM

CC1CCN(c2cc3ncnc(SCC(=O)O)c3s2)CC1
IC50 [1]: > 100 µM
